{"source": "patent US7691864B2", "about": "“Anti-hypertensive composition and methods of treatment” (University of Florida, priority 1994, dated 2010)", "tested_on": "Male Sprague Dawley rats", "test": "Blood pressure and heart rate in carotid-catheterized rats after I.P. dosing", "assay_type": "in vivo, rat", "description": "Male Sprague Dawley rats averaging 400 g were anesthetized with sodium pentobarbital, 50 mg/kg I.P. The animals' neck and shoulder areas were shaved and prepped for surgery. The carotid artery was isolated and clamped using an arterial hemostat. A nick was made in the artery and a segment of PE-50 intramedic tubing was inserted, directed towards the heart and tied into place. The tubing was then flushed with heparin (100 μ/ml) and skin tunneled to the shoulder area. A stylet was inserted into the tip of the catheter to prevent blood leakage. The external incisions were closed with 11 mm staples.\nThe animals were fasted and allowed to recover overnight. The following morning, the stylet was removed and the tubing flushed with the heparin solution. The rats were placed into individual cages and hooked up to a transducer/oscillograph. The animals were allowed to stabilize in the cages for one-half hour before any recordings began. The oscillograph was then turned on and baseline recordings of the heart rate and blood pressure were made. The rats were given diethylhomospermine in sterile normal saline at a dose of 121.9 or 10 mg/kg I.P. The animals' heart rate and blood pressure were evaluated at t=0, 0.5 (or 1), 3, 5, 10, 15 and 20 minutes post-drug.", "key": {"[1]": {"details": "10 mg/kg I.P., 10 min post-drug"}, "[2]": {"details": "10 mg/kg I.P., 15 min post-drug"}, "[3]": {"details": "10 mg/kg I.P., 20 min post-drug"}, "[4]": {"details": "10 mg/kg I.P., time 0 min (baseline)"}, "[5]": {"details": "121.9 mg/kg I.P., 0.5 min post-drug"}, "[6]": {"details": "121.9 mg/kg I.P., 3 min post-drug"}, "[7]": {"details": "121.9 mg/kg I.P., 5 min post-drug"}, "[8]": {"details": "121.9 mg/kg I.P., 10 min post-drug"}, "[9]": {"details": "121.9 mg/kg I.P., 15 min post-drug"}, "[10]": {"details": "121.9 mg/kg I.P., 20 min post-drug"}, "[11]": {"details": "121.9 mg/kg I.P., time 0 min (baseline)"}}, "data": [{"smiles": "CCNCCCCNCCCCNCCCCNCC", "note": "[diethylhomospermine]", "values": [{"measurement": "Blood Pressure", "setting": "10 mg/kg I.P., 1 min post-drug", "result": "105/95"}, {"measurement": "Heart Rate", "setting": "10 mg/kg I.P., 1 min post-drug", "result": 426, "unit": "b.p.m."}, {"measurement": "Blood Pressure", "setting": "10 mg/kg I.P., 3 min post-drug", "result": "110/99"}, {"measurement": "Heart Rate", "setting": "10 mg/kg I.P., 3 min post-drug", "result": 426, "unit": "b.p.m."}, {"measurement": "Blood Pressure", "setting": "10 mg/kg I.P., 5 min post-drug", "result": "110/98"}, {"measurement": "Heart Rate", "setting": "10 mg/kg I.P., 5 min post-drug", "result": 426, "unit": "b.p.m."}, {"measurement": "Blood Pressure", "setting": "[1]", "result": "105/97"}, {"measurement": "Heart Rate", "setting": "[1]", "result": 402, "unit": "b.p.m."}, {"measurement": "Blood Pressure", "setting": "[2]", "result": "105/97"}, {"measurement": "Heart Rate", "setting": "[2]", "result": 390, "unit": "b.p.m."}, {"measurement": "Blood Pressure", "setting": "[3]", "result": "107/100"}, {"measurement": "Heart Rate", "setting": "[3]", "result": 402, "unit": "b.p.m."}, {"measurement": "Blood Pressure", "setting": "[4]", "result": "135/120"}, {"measurement": "Heart Rate", "setting": "[4]", "result": 414, "unit": "b.p.m."}, {"measurement": "Blood Pressure", "setting": "[5]", "result": "75/68"}, {"measurement": "Heart Rate", "setting": "[5]", "result": 468, "unit": "b.p.m."}, {"measurement": "Blood Pressure", "setting": "[6]", "result": "52/44"}, {"measurement": "Heart Rate", "setting": "[6]", "result": 402, "unit": "b.p.m."}, {"measurement": "Blood Pressure", "setting": "[7]", "result": "51/42"}, {"measurement": "Heart Rate", "setting": "[7]", "result": 354, "unit": "b.p.m."}, {"measurement": "Blood Pressure", "setting": "[8]", "result": "42/40"}, {"measurement": "Heart Rate", "setting": "[8]", "result": 336, "unit": "b.p.m."}, {"measurement": "Blood Pressure", "setting": "[9]", "result": "39/34"}, {"measurement": "Heart Rate", "setting": "[9]", "result": 354, "unit": "b.p.m."}, {"measurement": "Blood Pressure", "setting": "[10]", "result": "30/28"}, {"measurement": "Heart Rate", "setting": "[10]", "result": 348, "unit": "b.p.m."}, {"measurement": "Blood Pressure", "setting": "[11]", "result": "130/120"}, {"measurement": "Heart Rate", "setting": "[11]", "result": 432, "unit": "b.p.m."}]}]}
